Experiments:
[1] = tested on: NMDA-induced death; experiment: NMDA test (25 mg/kg i.v.), protection against NMDA-induced death; type: in vivo, male NMRI mice; conditions: Mus musculus, 1 hr before test, NMDA 25 mg/kg i.v., proportion of surviving animals, read-out: Protective action; for responders at 50 mg/kg: 50 mg/kg oral; for responders at 20 mg/kg: 20 mg/kg oral
[2] = tested on: NMDA-induced death; experiment: as above; type: in vivo, male NMRI mice; conditions: Mus musculus; for ED50: 1 h, oral, one hour before NMDA 25 mg/kg i.v., dose protecting 50% of animals against NMDA-induced death; for responders at 5 mg/kg: 5 mg/kg oral, 1 hr before test, NMDA 25 mg/kg i.v., proportion of surviving animals, read-out: Protective action
Protocol: The following method was used to determine the neuroprotective/anticonvulsive activity of the compounds according to the invention of the general formula I: […]
In order to evaluate the neuroprotective activity, NMDA was administered intravenously in an amount of 25 mg/kg/10 ml to male NMRI mice having a body weight of 20-25 g. As a result of this administration the animals suffered clonic and in some cases also tonic convulsions, leading to death. Prevention of death is used as a criterion of the effectiveness of the investigated compounds.
All experimental animals had free access to food and water before the experiments. The test and reference substances were administered orally as a suspension in 0.2% agar or water, by means of a pharyngeal probe, in some cases with the aid of solubilizers such as PEG-400. Control animals received the same volume of solvents, if necessary with the addition of solubilizers. One hour after administration of the substance NMDA was administered intravenously and the occurrence of convulsions was observed.
The results of the tests carried out (NMDA 25 mg i.v.) at doses of 5 mg of the compounds according to the invention per kg body weight compared to known NMDA antagonists are given in Table 1. The percentage proportion of the surviving animals is given as % effect.
Table 1 also gives as ED-50 values those doses of the substances according to the invention and other NMDA antagonists, which in the NMDA i.v. test (25 mg/kg) one hour after administration protected 50% of the animals against NMDA-induced death.
The ED-50 values were determined according to the method of Lichtfield and Wilcoxon, J. Pharmacol. exp. Therapeut. 96, 99 (1949), in each case using 4-5 groups of animals each containing 10 animals per dose stage.

| SMILES | responders at 50 mg/kg [1] | ED50 [2] | responders at 5 mg/kg [2] | responders at 20 mg/kg [1] |
| --- | --- | --- | --- | --- |
| COc1ccc2c(c1)[C@]13CCCC[C@@H]1[C@H](C2)N(C)CC3 [Dextromethorphan, reference compound] | 50% | 66.7 mg/kg | – | – |
| COc1ccc2c(C)c(CCN3CCN(c4ccccc4OC)CC3)c(=O)oc2c1 [Example 1, 7-methoxy-3-{2-[4-(2-methoxyphenyl)-1-piperazinyl]ethyl}-4-methyl-2H-1-benzopyran-2-one] | – | 0.8 mg/kg | 87.5% | – |
| COc1cc2oc(=O)c(CCN3CCN(c4ccccc4OC)CC3)c(C)c2cc1O [Example 2, 6-hydroxy-7-methoxy-3-{2-[4-(2-methoxyphenyl)-1-piperazinyl]ethyl}-4-methyl-2H-1-benzopyran-2-one] | – | 0.2 mg/kg | 100% | – |
| COc1cc2oc(=O)c(CCN3CCN(c4ccccc4)CC3)c(C)c2cc1OC [Example 3, 6,7-dimethoxy-4-methyl-3-[2-(4-phenyl-1-piperazinyl)ethyl]-2H-1-benzopyran-2-one] | – | – | 50% | – |
| COc1cc2oc(=O)c(CCN3CCN(c4ccccc4OC)CC3)c(C)c2cc1OC [Example 4, 6,7-dimethoxy-3-{2-[4-(2-methoxyphenyl)-1-piperazinyl)ethyl]-4-methyl-2H-1-benzopyran-2-one] | – | 0.4 mg/kg | 100% | – |
| CCOc1cc2c(C)c(CCN3CCC(c4ccccc4)CC3)c(=O)oc2cc1OC [Example 5, 6-ethoxy-7-methoxy-4-methyl-3-[2-(4-phenyl-1-piperidinyl)ethyl]-2H-1-benzopyran-2-one] | – | 4.1 mg/kg | 75% | – |
| CCOc1cc2c(C)c(CCN3CCN(c4ccccc4)CC3)c(=O)oc2cc1OC [Example 6, 6-ethoxy-7-methoxy-4-methyl-3-[2-(4-phenyl-1-piperazinyl)ethyl]-2H-1-benzopyran-2-one] | – | 2 mg/kg | 87.5% | – |
| CCOc1cc2c(C)c(CCN3CCN(c4ccccc4OC)CC3)c(=O)oc2cc1OC [Example 7, 6-ethoxy-7-methoxy-3-{2-[4-(2-methoxyphenyl)-1-piperazinyl]ethyl}-4-methyl-2H-1-benzopyran-2-one] | – | 0.4 mg/kg | 100% | – |
| COc1cc2oc(=O)c(CCN3CCN(c4ccccc4OC)CC3)c(C)c2cc1OC(C)C [Example 8, 7-methoxy-3-{2-[4-(2-methoxyphenyl)-1-piperazinyl]ethyl}-4-methyl-6-(1-methylethoxy)-2H-1-benzopyran-2-one] | – | 0.7 mg/kg | 100% | – |
| CCS(=O)(=O)Oc1cc2c(C)c(CCN3CCN(c4ccccc4OC)CC3)c(=O)oc2cc1OC [Example 9, 6-(ethanesulphonyloxy)-7-methoxy-3-(2-[4-(2-methoxyphenyl)-1-piperazinyl]-ethyl)-4-methyl-2H-1-benzopyran-2-one] | – | 0.6 mg/kg | 100% | – |
| COc1ccccc1N1CCN(CCc2c(C)c3ccc(OC)c(OC)c3oc2=O)CC1 [Example 10, 7,8-dimethoxy-3-{2-[4-(2-methoxyphenyl)-1-piperazinyl]ethyl}-4-methyl-2H-1-benzopyran-2-one] | – | 0.4 mg/kg | 100% | – |
| CCOc1ccc2c(C)c(CCN3CCN(c4ccccc4OC)CC3)c(=O)oc2c1OCC [Example 11, 7,8-diethoxy-3-{2-[4-(2-methoxyphenyl)-1-piperazinyl]ethyl}-4-methyl-2H-1-benzopyran-2-one] | – | – | 100% | – |
| COc1cc2oc(=O)c(CCN3CCC(c4ccccc4)CC3)c(C)c2c(OC)c1OC [Example 12, 5,6,7-trimethoxy-4-methyl-3-[2-(4-phenyl-1-piperidinyl)ethyl]-2H-1-benzopyran-2-one] | – | 3.4 mg/kg | 75% | – |
| COc1cc2oc(=O)c(CCN3CCN(c4ccccc4)CC3)c(C)c2c(OC)c1OC [Example 13, 5,6,7-trimethoxy-4-methyl-3-[2-(4-phenyl-1-piperazinyl)ethyl]-2H-1-benzopyran-2-one] | – | – | 62.5% | – |
| COc1cc(OC)c2c(C)c(CCN3CCC(c4ccccc4)CC3)c(=O)oc2c1 [Example 14, 5,7-dimethoxy-4-methyl-3-[2-(4-phenyl-1-piperidinyl)ethyl]-2H-1-benzopyran-2-one] | – | 2.2 mg/kg | 87.5% | – |
| COc1cc(OC)c2c(C)c(CCN3CCN(c4ccccc4)CC3)c(=O)oc2c1 [Example 15, 5,7-dimethoxy-4-methyl-3-[2-(4-phenyl-1-piperazinyl)ethyl]-2H-1-benzopyran-2-one] | – | 1 mg/kg | 87.5% | – |
| COc1ccccc1N1CCN(CCc2c(C)c3c(O)cc(O)cc3oc2=O)CC1 [Example 16, 5,7-dihydroxy-3-{2-[4-(2-methoxyphenyl)-1-piperazinyl]ethyl}-4-methyl-2H-1-benzopyran-2-one] | – | 0.2 mg/kg | 100% | – |
| COc1cc(OC)c2c(C)c(CCN3CCN(c4ccccc4OC)CC3)c(=O)oc2c1 [Example 17, 5,7-dimethoxy-3-{2-[4-(2-methoxyphenyl)-1-piperazinyl]ethyl}-4-methyl-2H-1-benzopyran-2-one] | – | 0.2 mg/kg | 100% | – |
| CCOc1cc(OCC)c2c(C)c(CCN3CCN(c4ccccc4OC)CC3)c(=O)oc2c1 [Example 18, 5,7-diethoxy-3-{2-[4-(2-methoxyphenyl)-1-piperazinyl]ethyl}-4-methyl-2H-1-benzopyran-2-one] | – | 0.6 mg/kg | 100% | – |
| CCCOc1cc(OCCC)c2c(C)c(CCN3CCN(c4ccccc4OC)CC3)c(=O)oc2c1 [Example 19, 3-{2-[4-(2-methoxyphenyl)-1-piperazinyl]ethyl}-4-methyl-5,7-dipropoxy-2H-1-benzopyran-2-one] | – | – | 100% | – |
| CCOc1ccccc1N1CCN(CCc2c(C)c3c(OC)cc(OC)cc3oc2=O)CC1 [Example 20, 3-{2-[4-(2-ethoxyphenyl)-1-piperazinyl]ethyl}-5,7-dimethoxy-4-methyl-2H-1-benzopyran-2-one] | – | – | 100% | – |
| COc1cc(OC)c2c(C)c(CCN3CCN(c4ccccc4C)CC3)c(=O)oc2c1 [Example 21, 5,7-dimethoxy-4-methyl-3-{2-[4-(2-methylphenyl)-1-piperazinyl]ethyl}-2H-1-benzopyran-2-one] | – | – | 87.5% | – |
| COc1cc(OC)c2c(C)c(CCN3CCN(c4ccccc4F)CC3)c(=O)oc2c1 [Example 22, 3-{2-[4-(2-fluorophenyl)-1-piperazinyl]ethyl}-5,7-dimethoxy-4-methyl-2H-1-benzopyran-2-one] | – | – | 100% | – |
| COc1cc(OC)c2c(C)c(CCN3CCN(c4cccc(C(F)(F)F)c4)CC3)c(=O)oc2c1 [Example 23, 5,7-dimethoxy-4-methyl-3-{2-[4-(3-trifluoromethylphenyl)-1-piperazinyl]ethyl}-2H-1-benzopyran-2-one] | – | – | 25% | – |
| COc1cc(OC)c2c(C)c(CCN3CCC(O)(c4ccccc4)CC3)c(=O)oc2c1 [Example 24, 3-[2-(4-hydroxy-4-phenyl-1-piperidinyl)ethyl]-5,7-dimethoxy-4-methyl-2H-1-benzopyran-2-one] | – | – | 25% | – |
| COc1cc(OC)c2c(C)c(CCN3CCN(c4ccccc4O)CC3)c(=O)oc2c1 [Example 25, 3-{2-[4-(2-hydroxyphenyl)-1-piperazinyl]-ethyl}-5,7-dimethoxy-4-methyl-2H-1-benzopyran-2-one] | – | – | 87.5% | – |
| Fc1ccc(C(c2ccc(F)cc2)N2CCN(C/C=C/c3ccccc3)CC2)cc1 [Flunarizin, reference compound] | 100% | 22.8 mg/kg | – | – |
| CNC1(c2ccccc2Cl)CCCCC1=O (stereo not shown) [Ketamin] | – | – | – | 0% |
| COCCOC(=O)C1=C(C)NC(C)=C(C(=O)OC(C)C)C1c1cccc([N+](=O)[O-])c1 (stereo not shown) [Nimodipin, reference compound] | – | 18.5 mg/kg | – | 87.5% |
| COc1ccc(CCN(C)CCCC(C#N)(c2ccc(OC)c(OC)c2)C(C)C)cc1OC (stereo not shown) [Verapamil, reference compound] | – | 17.3 mg/kg | – | 87.5% |
